Data as given in article doi:10.1101/161430v2 (biorxiv, 2019).

Experiments:
[1] = target: T1, human carboxylesterase 2 (CES2, hCES2) (Homo sapiens, UniProt O00748); experiment: biochemical
T1 sequence (O00748 27-559): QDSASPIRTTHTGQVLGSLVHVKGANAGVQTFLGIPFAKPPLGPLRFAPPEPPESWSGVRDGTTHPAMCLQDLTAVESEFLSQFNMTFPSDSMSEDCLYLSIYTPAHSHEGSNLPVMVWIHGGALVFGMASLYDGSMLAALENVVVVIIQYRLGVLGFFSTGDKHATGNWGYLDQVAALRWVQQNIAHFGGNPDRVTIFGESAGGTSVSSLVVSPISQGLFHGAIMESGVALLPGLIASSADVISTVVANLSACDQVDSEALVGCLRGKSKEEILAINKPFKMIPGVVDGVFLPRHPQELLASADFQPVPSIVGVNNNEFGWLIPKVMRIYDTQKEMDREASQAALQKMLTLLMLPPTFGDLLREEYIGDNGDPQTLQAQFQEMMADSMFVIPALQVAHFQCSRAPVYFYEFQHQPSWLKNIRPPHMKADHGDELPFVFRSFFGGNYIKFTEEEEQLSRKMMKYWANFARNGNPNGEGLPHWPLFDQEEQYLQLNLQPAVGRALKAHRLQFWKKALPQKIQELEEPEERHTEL

[2] = target: T2, human BChE (butyrylcholinesterase, BuChE) (Homo sapiens, UniProt P06276); experiment: Ellman assay, […] nm; type: biochemical
T2 sequence (P06276 29-602): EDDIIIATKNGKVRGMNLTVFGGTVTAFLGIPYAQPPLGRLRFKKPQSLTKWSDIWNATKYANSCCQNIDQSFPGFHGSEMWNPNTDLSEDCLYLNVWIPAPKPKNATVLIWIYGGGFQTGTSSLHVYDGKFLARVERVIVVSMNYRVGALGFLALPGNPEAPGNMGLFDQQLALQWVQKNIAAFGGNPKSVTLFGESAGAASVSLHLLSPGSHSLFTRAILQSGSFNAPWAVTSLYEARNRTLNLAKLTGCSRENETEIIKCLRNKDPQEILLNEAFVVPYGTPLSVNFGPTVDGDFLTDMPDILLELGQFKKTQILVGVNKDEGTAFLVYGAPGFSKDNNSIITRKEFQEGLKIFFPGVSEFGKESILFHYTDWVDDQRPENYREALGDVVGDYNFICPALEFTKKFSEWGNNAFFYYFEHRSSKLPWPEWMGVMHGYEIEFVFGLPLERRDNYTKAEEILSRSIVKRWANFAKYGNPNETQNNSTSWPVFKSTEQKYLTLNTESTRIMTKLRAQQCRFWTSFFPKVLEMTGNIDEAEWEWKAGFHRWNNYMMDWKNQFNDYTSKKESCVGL

in vitro [3] = conditions: human, EC50 viability, 3.10
MDA-MB-231 = experiment: in vitro; conditions: read-out: EC50 viability, 3.10; human, 48 h
HTC116 = experiment: in vitro; conditions: read-out: EC50 viability, 3.10; human, 48 h
HeLa = experiment: in vitro; conditions: read-out: EC50 viability, 3.10; human, 48 h
HT29 = experiment: in vitro; conditions: read-out: EC50 viability, 3.10; human, 48 h
Colo205 = experiment: in vitro; conditions: read-out: EC50 viability, 3.10; human, 48 h
H23 = experiment: in vitro; conditions: read-out: EC50 viability, 3.10; human, 48 h
in vitro [4] = conditions: human
PC3 = experiment: in vitro; conditions: read-out: EC50 cmpd 3.10; human, 48 h
[5] = target: T3, human AChE (acetylcholinesterase) (Homo sapiens, UniProt P22303); experiment: biochemical
T3 sequence (P22303 32-614): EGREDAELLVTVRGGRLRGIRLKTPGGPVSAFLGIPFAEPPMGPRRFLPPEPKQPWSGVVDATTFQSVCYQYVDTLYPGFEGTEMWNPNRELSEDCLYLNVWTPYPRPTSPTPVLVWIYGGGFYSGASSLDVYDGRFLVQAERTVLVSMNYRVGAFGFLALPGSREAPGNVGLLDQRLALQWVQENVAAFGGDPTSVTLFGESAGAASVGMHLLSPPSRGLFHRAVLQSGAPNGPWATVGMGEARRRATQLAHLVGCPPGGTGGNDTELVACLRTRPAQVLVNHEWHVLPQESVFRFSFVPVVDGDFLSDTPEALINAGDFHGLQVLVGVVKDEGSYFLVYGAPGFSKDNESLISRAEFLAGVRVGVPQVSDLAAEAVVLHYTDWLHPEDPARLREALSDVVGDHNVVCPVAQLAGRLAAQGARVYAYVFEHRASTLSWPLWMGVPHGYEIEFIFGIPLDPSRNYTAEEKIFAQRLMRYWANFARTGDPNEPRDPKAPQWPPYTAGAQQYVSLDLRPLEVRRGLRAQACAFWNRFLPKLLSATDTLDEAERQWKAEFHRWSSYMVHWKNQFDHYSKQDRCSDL

[6] = target: T3, human AChE (acetylcholinesterase); experiment: Ellman assay, […] nm; type: biochemical
[7] = target: T2, human BChE (butyrylcholinesterase, BuChE); experiment: biochemical
[8] = target: T1, human carboxylesterase 2 (CES2, hCES2); experiment: competition with 4-nitrophenyl acetate, […] nm; type: biochemical
[9] = target: T4, human carboxylesterase 1 (CES1, hCES1) (Homo sapiens, UniProt P23141); experiment: competition with 4-nitrophenyl acetate, […] nm; type: biochemical
T4 sequence (P23141 18-567): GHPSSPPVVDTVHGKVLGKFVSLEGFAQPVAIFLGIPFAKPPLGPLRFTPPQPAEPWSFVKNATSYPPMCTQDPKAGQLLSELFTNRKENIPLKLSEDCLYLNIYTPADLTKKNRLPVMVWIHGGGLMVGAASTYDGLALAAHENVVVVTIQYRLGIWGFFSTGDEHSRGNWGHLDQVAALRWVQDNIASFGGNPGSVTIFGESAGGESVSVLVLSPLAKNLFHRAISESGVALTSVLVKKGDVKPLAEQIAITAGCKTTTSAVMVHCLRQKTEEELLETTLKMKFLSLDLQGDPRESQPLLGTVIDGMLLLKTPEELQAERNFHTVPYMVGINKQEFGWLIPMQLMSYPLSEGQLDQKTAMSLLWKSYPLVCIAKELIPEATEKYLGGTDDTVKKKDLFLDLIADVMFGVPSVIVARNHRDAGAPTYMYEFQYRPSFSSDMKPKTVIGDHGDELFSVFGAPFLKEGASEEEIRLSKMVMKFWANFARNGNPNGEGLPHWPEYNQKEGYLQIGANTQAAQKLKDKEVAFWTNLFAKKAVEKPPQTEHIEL

[10] = target: T4, human carboxylesterase 1 (CES1, hCES1); experiment: biochemical

SMILES | IC50 [1] [nM] | Ki [2] [nM] | CC50 at 48 h (in vitro [3]) [nM] | CC50 (MDA-MB-231) [nM] | CC50 (HTC116) [nM] | CC50 (HeLa) [nM] | CC50 (HT29) [nM] | CC50 (Colo205) [nM] | CC50 (H23) [nM] | CC50 at 48 h (in vitro [4]) [nM] | CC50 (PC3) [nM] | IC50 [5] [nM] | Ki [6] [nM] | IC50 [7] [nM] | Ki [8] [nM] | Ki [9] [nM] | IC50 [10] [nM] | CC50 at 48 h (in vitro [4]; 263t cells) [nM]
OB(O)c1cc(Br)cc(Oc2ccccc2)c1 [3.10, compound 3.10] | 3.8 | 94 | > 100000 | > 100000 | > 100000 | > 100000 | > 100000 | > 100000 | > 100000 | > 100000 | > 100000 | 23000 | 9300 | 490 | 2.1 | 1.1 | 2 | –
OB(O)c1cc(Br)cc(N2CCCC2)c1 [compound 3] | 37 | 260 | – | – | – | – | – | – | – | – | – | 61000 | 25000 | – | 21 | 4.1 | 7.4 | > 100000
